Measured values taken from PMC5108082, “Pharmacokinetics, toxicity, and cytochrome P450 modulatory activity of plumbagin” (BMC Pharmacology & Toxicology, 2016).
“Also recorded” adds a separate entry of the source.

What was measured:
[1] = in vivo; conditions: male, Wistar, rat, po, 100 mg/kg
Method: Pharmacokinetic investigation was performed in 4 male Wistar rats (weighing 200–350 g) following a single oral dose of 100 mg/kg body weight plumbagin (1 mL). The control group received 20 % Tween-80 (1 mL). Blood samples (500 μL each) were collected from the tail vein of each rat at 0, 1, 2, 3, 5, 8, 24, 48, and 72 h after dosing. Plasma was separated from whole blood samples through centrifugation at 3000 × g for 10 min.
Concentrations of plumbagin in plasma and urine samples collected from all animals were measured using liquid chromatographic-mass spectrometry (LC-MS/MS) according to the previously described method with modifications. The limits of quantification (LOQ) and detection (LOD) for plumbagin were 5 and 2 ng/mL plasma, respectively. Recovery of the compound in plasma after sample preparation procedure was between 82 and 92 %. The assay intra- and inter-day coefficients of variation (% CV) were 0.7–4.7 % and 3.9–8.3 %, respectively. In brief, plasma sample (100 μL) was mixed with 10 ng/mL honokiol (5 μL) and ethyl acetate (1 mL) and centrifuged at 12,000 × g for 15 min. The upper layer was transferred to a new tube and evaporated to dryness under nitrogen flow. The dried residue was reconstituted with 100 μL of the mobile phase and a 5 μL aliquot was injected onto the LC–MS/MS. The samples were collected from the metabolic cages at 24, 48, 72, 96, and 120 h. All were centrifuged at 1500 × g for 10 min and the supernatant (100 μL) was extracted with ethyl acetate (1 mL). The extract was dried and the residue was reconstituted with 100 μL of the mobile phase and a 5 μL aliquot was injected onto the LC–MS/MS.
The LC-MS/MS system used consists of Agilent 1100 Separation Module (Agilent Technologies, CA, USA) solvent and sample delivery, Av QTRAP 5500 Triple Quadrupole Mass Spectrometer (AB Sciex, Foster City, CA, USA) equipped with CID, and Multiple Reactions Monitoring (MRM). Mass spectrometric analysis was performed in the negative-ion mode (ESI). The following parameters of the turbo ion spray were used: ion spray voltage = −4500 V; the ion source gas 1 (GS1), gas 2 (GS2), curtain gas (CUR) and collision gas (CAD) were 50, 60, 25 and 5, respectively; and the desolvation gas (nitrogen) heated to 500 °C. Separation was performed using Hypersil gold reversed-phase C18 column (50 mm × 4.6 mm i.d., 5 μM: Thermo Scientific, Fremont, CA, USA) with the mobile phase consisting of a mixture of (A) water containing 0.1 % formic acid and (B) 100 % methanol, running with gradient mode at the flow rate of 0.6 mL/min at 25 °C (Table 1). On the basic of the full-scan mass spectra of each analyze, the most abundant ions were selected and the mass spectrometer was set to monitor the transitions of the precursors to the product ions as follows: m/z 187– >159 for plumbagin, and 265– >224 for honokiol (internal standard). The system was controlled by Analyst^TM software (AB Sciex, Foster City, CA, USA).
Pharmacokinetic parameters were determined using a non-compartmental analysis using WinNonLin^TM software (version 6.3, Pharsights, Certara, USA). Concentrations of drugs lower than the limit of quantification (LOQ) were expressed as zero (undetectable). The Cmax (maximum concentration); tmax (time of maximum concentration) were determined by direct inspection of the plasma concentration–time data. […] The extrapolated AUC from the last sampling time to infinity was estimated from Ct/elimination rate constant (λz). λz was calculated from at least five concentration–time points of elimination phase. Apparent oral clearance (CL/F) was calculated as dose/AUC0−∞. Volume of distribution (Vz/F) was calculated as CL/F/z, and the terminal half-life (t1/2z) was calculated as 0.693/λz. Mean residence time (MRT) was calculated from the ratio of AUMC0-α)/AUC0−∞.

[2] = rat, in vivo, cited from earlier work
[3] = test system: human colon epithelial cell monolayer Caco-2; conditions: cited from earlier work
[4] = test system: Wistar rats; experiment: subacute toxicity test, daily oral dose for 28 days; type: in vivo, rat
Method: (§1) Plumbagin was dissolved with 20 % Tween-80 to obtain the desired concentrations. Wistar rats were fasting 2 h before administration of a single oral dose of the plumbagin. Animals were divided into eight groups of six (3 males and 3 females for each group). For the acute toxicity test, rats in each group were fed with plumbagin at a single oral dose of 500, 250, or 150 mg/kg body weight (1 mL); control group received a single oral dose of 20 % Tween-80 (1 mL). For the subacute toxicity test, rats in each group were fed with plumbagin at a daily dose of 100, 50, or 25 mg/kg body weight (1 mL) for 28 days; control group received a daily oral dose of 20 % Tween-80 for 28 days (1 mL).
(§2) General behavioral changes of each rat was observed continuously for 1 h after each dose, intermittently every 4 h, and thereafter over a period of 24 h. […] At the end of the observation period, all animals were sacrificed under ether anesthesia (isoflurane) and vital organs (liver, lung, kidney, heart, and spleen) were removed from all animals for gross and histopathological examination. Blood sample was collected from each rat through cardiac puncture for analysis of plasma chemistry (heparin as an anticoagulant) and blood hematology (EDTA as an anticoagulant).

[5] = as above; type: in vivo, rat; conditions: both sexes, Wistar, rat, in vivo, rats, daily oral doses for 28 days
Method: as §1, §2

[6] = 25 mg/kg body weight daily for 28 days
[7] = 25 mg/kg daily oral for 28 days, median (interquartile range)

**Q.** With `CC1=CC(=O)c2c(O)cccc2C1=O` [plumbagin, 5-hydroxy-2-methyl-1,4-naphthoquinone] as the compound, how does the AUC(0-inf) [1] read?
**A.** The AUC(0-inf) was 6710 ng·h/mL.

**Q.** What about the AUC(0-t) [1] of the same compound?
**A.** The AUC(0-t) was 6510 ng·h/mL.

**Q.** And the CL/F [1]?
**A.** Its CL/F is 250 mL/min/kg.

**Q.** What about the Cmax [1] of the same compound?
**A.** The Cmax was 460 ng/mL.

**Q.** And the Tmax [1]?
**A.** Its Tmax is 5 h.

**Q.** What about the Vd/F [1] of the same compound?
**A.** The Vd/F was 220 L/kg.

**Q.** And the “t1/2 (elimination half-life)” value [1]?
**A.** Its value is 9.63 (3.04) h.

**Q.** And the “time up to which detected in systemic circulation” value [1]?
**A.** The value was 48 h.

**Q.** And the “time up to which detected in urine (complete elimination in urine)” value [1]?
**A.** The value was 96 h.

**Q.** What about the “plumbagin excreted in urine” value ([1]; 72 h) of the same compound?
**A.** The value was 15 (9) μg.

**Q.** And the half-life ([1]; t1/2 (elimination half-life))?
**A.** Its half-life is ~9.6 h.

**Q.** And the oral bioavailability ([2]; po)?
**A.** Its oral bioavailability is 39%.

**Q.** What about the “elimination half-life (t1/2), mean” value [2] of the same compound?
**A.** Its value is 17 h.

**Q.** And the “mean residence time (MRT), mean” value [2]?
**A.** The value was 22 h.

**Q.** What about the “time to reach maximum blood concentration (tmax)” value [2] of the same compound?
**A.** Its value is 2.5 h.

**Q.** And the “influence of efflux protein on permeability” value ([3]; Caco-2)?
**A.** The value was “no influence of efflux protein”.

**Q.** What about the permeability ([3]; Caco-2) of the same compound?
**A.** The permeability was “moderate”.

**Q.** What about the transport mechanism [3] of the same compound?
**A.** Its transport mechanism is “passive transport”.

**Q.** And the “behavior, signs of toxicity, water and food consumption, body weight” value [4, 6]?
**A.** Its value is “no abnormality in behavior, sign of toxicity, nor changes in water and food consumption, as well as body weights”.

**Q.** What about the “histopathological examination (liver, kidney, heart, spleen, lung)” value [4, 6] of the same compound?
**A.** The value was “no significant change in size and morphology”.

**Q.** And the survival [4, 6]?
**A.** The survival was “all rats survived”.

**Q.** What about the “changes in blood chemistry and hematology” value ([4]; 25 mg/kg body weight daily for 28 days vs control) of the same compound?
**A.** The value was “no significant changes in blood chemistry and hematology; also recorded: no significant change in hematological and blood biochemistry profiles”.

**Q.** What about the Blood morphology ([4]; 25 mg/kg daily oral for 28 days) of the same compound?
**A.** The Blood morphology was “Normal”.

**Q.** And the ALT [4, 7]?
**A.** The ALT was 30 (11) U/L.

**Q.** And the AST [4, 7]?
**A.** Its AST is 101 (15) U/L.

**Q.** And the BUN [4, 7]?
**A.** Its BUN is 22.0 (7.5) mg/dL.

**Q.** And the Cholesterol [4, 7]?
**A.** The Cholesterol was 73 (6) mg/dL.

**Q.** And the Creatinine [4, 7]?
**A.** The Creatinine was 0.50 (0.00) mg/dL.

**Q.** What about the Eosinophils [4, 7] of the same compound?
**A.** The Eosinophils was 0.00 (1.00) ×10^3/μL.

**Q.** What about the Glucose [4, 7] of the same compound?
**A.** Its Glucose is 230 mg/dL.

**Q.** And the Hematocrit [4, 7]?
**A.** The Hematocrit was 47.8 (2.6) %.

**Q.** And the Hemoglobin [4, 7]?
**A.** The Hemoglobin was 14.4 (1.2) g/dL.

**Q.** And the Lymphocytes [4, 7]?
**A.** Its Lymphocytes is 7.59 (0.31) ×10^3/μL.

**Q.** What about the Monocytes [4, 7] of the same compound?
**A.** The Monocytes was 0.00 (1.00) ×10^3/μL.

**Q.** And the Neutrophils [4, 7]?
**A.** The Neutrophils was 2.20 (0.63) ×10^3/μL.

**Q.** And the Platelets count [4, 7]?
**A.** The Platelets count was 885.50 (73.75) ×10^3/μL.

**Q.** What about the RBC [4, 7] of the same compound?
**A.** Its RBC is 8.16 (0.72) ×10^6/μL.

**Q.** What about the Triglyceride [4, 7] of the same compound?
**A.** Its Triglyceride is 110 (9) mg/dL.

**Q.** And the WBC [4, 7]?
**A.** The WBC was 9.40 (0.65) ×10^3/μL.

**Q.** And the Glucose ([4]; 25 mg/kg daily oral for 28 days, median (interquartile range), listed as Plumbagin)?
**A.** Its Glucose is 230 (59) mg/dL.

**Q.** And the rats died ([4]; 50 mg/kg body weight daily)?
**A.** The rats died was “two rats”.

**Q.** What about the “rats with toxic signs and symptoms” value ([4]; 50 mg/kg body weight daily) of the same compound?
**A.** The value was 2/6.

**Q.** And the time to death ([4]; 50 mg/kg body weight daily)?
**A.** Its time to death is 12 to 16 days.

**Q.** And the rats died ([4]; 100 mg/kg body weight daily)?
**A.** Its rats died is “All rats”.

**Q.** What about the “rats with toxic signs and symptoms” value ([4]; 100 mg/kg body weight daily) of the same compound?
**A.** Its value is 6/6.

**Q.** What about the time to death ([4]; 100 mg/kg body weight daily) of the same compound?
**A.** Its time to death is 6 to 10 days.

**Q.** And the gender-specific toxicity ([4]; all dose levels)?
**A.** The gender-specific toxicity was “No gender-specific toxicity was observed”.

**Q.** And the LD50 at 28 days ([5]; read-out: 50 % lethal dose (LD50), subacute toxicity)?
**A.** Its LD50 at 28 days is 50 to 100 mg/kg.

**Q.** What about the MTD at 28 days ([5]; read-out: maximum tolerated dose, subacute toxicity) of the same compound?
**A.** Its MTD at 28 days is 25 mg/kg.
